19 compounds from ChEMBL document CHEMBL1126665, “o-Chlorobenzenesulfonamidic derivatives of (aryloxy)propanolamines as beta-blocking/diuretic agents” (J Med Chem, 1993) can be followed below.

Assay [1] relates to Rattus norvegicus. The assay is described as follows: Saluretic activity was evaluated for K+ by flame photometry at 8 mg/kg perorally. It is filed as functional. The note with it: route oral.
Assay [2] concerns Rattus norvegicus. The assay is described as follows: Saluretic activity was evaluated for Na+ by flame photometry at 15 mg/kg perorally. The class given is functional. The note with it: route oral.
Assay [3] has as its system Rattus norvegicus. Put plainly: Saluretic activity was evaluated for Na+ by flame photometry at 8 mg/kg perorally. The note with it: route oral. It is filed as functional.
Assay [4] in a line: Ratio of saluretic activity for Na+ over saluretic activity of K+ in rats after peroral administration of 30 mg/kg of compound. The class given is functional. The settings on record: route oral.
Assay [5] can be described thus: Ratio of saluretic activity for Na+ over saluretic activity of K+ in rats after peroral administration of 8 mg/kg of compound. The class given is functional. The settings on record: route oral.
Assay [6] in a line: Ratio of saluretic activity for Na+ over saluretic activity of K+ in rats after peroral administration of 15 mg/kg of compound. It is filed as functional. The settings on record: route oral.
Assay [7] has as its system Rattus norvegicus. Put plainly: Diuretic activity given as urinary output of 15 mg/kg perorally administered compound in rats. The note with it: route oral. The class given is functional, Urine.
The subject of assay [8] is Rattus norvegicus. Put plainly: Saluretic activity was evaluated for K+ by flame photometry at 30 mg/kg perorally. The settings on record: route oral. It is filed as functional.
For assay [9], the system named is Rattus norvegicus. The assay is described as follows: Diuretic activity given as urinary output of 8 mg/kg perorally administered compound in rats. The class given is functional, Urine. The settings on record: route oral.
Assay [10] has as its system Rattus norvegicus. The assay is described as follows: Saluretic activity was evaluated for Na+ by flame photometry at 30 mg/kg perorally. The settings on record: route oral. It is filed as functional.
The test system of assay [11] is Rattus norvegicus. The assay is described as follows: Saluretic activity was evaluated for K+ by flame photometry at 15 mg/kg perorally. The class given is functional. The settings on record: route oral.
For assay [12], the system named is Rattus norvegicus. Put plainly: Diuretic activity given as urinary output of 30 mg/kg perorally administered compound in rats. It is filed as functional, Urine. The note with it: route oral.
For assay [13], the target named is Beta-1 adrenergic receptor (Homo sapiens, UniProt P08588).
Beta-1 adrenergic receptor, sequence (P08588 whole entry): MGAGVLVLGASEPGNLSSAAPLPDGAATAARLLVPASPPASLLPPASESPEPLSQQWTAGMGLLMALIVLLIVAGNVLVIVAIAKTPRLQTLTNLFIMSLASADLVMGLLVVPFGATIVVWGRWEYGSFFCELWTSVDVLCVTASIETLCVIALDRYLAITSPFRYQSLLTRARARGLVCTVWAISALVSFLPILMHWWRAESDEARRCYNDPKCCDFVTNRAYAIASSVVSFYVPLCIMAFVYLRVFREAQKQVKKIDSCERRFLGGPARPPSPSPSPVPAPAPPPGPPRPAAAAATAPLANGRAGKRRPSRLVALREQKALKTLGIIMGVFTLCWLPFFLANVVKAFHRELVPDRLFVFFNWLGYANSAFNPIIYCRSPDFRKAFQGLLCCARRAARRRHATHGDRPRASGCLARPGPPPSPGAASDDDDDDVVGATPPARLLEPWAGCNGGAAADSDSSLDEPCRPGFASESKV
The target of assay [14] is T1, Adrenergic receptor beta (Rattus norvegicus) (UniProt P18090+P10608+P26255).
Description: beta-adrenoceptor blocking activity of the intravenously administered compound was evaluated by inhibition of isiprenaline-induced tachycardia in rats; NA indicates not active
In assay [15] the target is T1, Adrenergic receptor beta (Rattus norvegicus). The source holds these as a separate data set.
Description: beta-adrenoceptor blocking activity of the perorally administered compound was evaluated by inhibition of isiprenaline-induced tachycardia in rats; NA indicates not active
The target of assay [16] is Beta-1 adrenergic receptor (Meleagris gallopavo) (UniProt P07700). The assay is described as follows: Inhibition of [3H]dihydroalprenolol binding ([3H]-DHA) to beta-1-adrenoceptor from turkey erythrocyte membranes; Not active.
Beta-1 adrenergic receptor (Meleagris gallopavo), sequence (P07700 whole entry, looked up): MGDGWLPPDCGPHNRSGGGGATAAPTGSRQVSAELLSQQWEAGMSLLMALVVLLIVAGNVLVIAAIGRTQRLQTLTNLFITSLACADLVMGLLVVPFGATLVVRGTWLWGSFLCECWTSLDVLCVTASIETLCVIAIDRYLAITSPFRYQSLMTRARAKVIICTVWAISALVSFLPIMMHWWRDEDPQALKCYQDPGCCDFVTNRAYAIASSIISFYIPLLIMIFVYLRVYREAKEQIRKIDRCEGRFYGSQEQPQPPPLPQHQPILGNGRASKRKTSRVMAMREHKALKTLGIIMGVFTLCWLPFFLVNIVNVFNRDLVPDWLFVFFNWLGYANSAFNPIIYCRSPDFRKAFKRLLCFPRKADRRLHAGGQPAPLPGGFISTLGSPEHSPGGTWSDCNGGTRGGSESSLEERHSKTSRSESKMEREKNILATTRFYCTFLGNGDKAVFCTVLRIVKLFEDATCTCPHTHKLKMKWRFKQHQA
The subject of assay [17] is Rattus norvegicus. The assay is described as follows: Diuretic activity given as urinary output of 50 mg/kg perorally administered compound in rats. It is filed as functional, Urine. The note with it: route oral.
Assay [18] concerns Rattus norvegicus. Put plainly: Saluretic activity was evaluated for K+ by flame photometry at 50 mg/kg perorally. It is filed as functional. The note with it: route oral.
Assay [19] is described as follows: Ratio of saluretic activity for Na+ over saluretic activity of K+ in rats after peroral administration of 50 mg/kg of compound. The class given is functional. The settings on record: route oral.
Assay [20] has as its system Rattus norvegicus. Put plainly: Saluretic activity was evaluated for Na+ by flame photometry at 50 mg/kg perorally. The class given is functional. The note with it: route oral.
Assay [21] has as its system Rattus norvegicus. The assay is described as follows: Diuretic activity given as urinary output at 15 mg/kg perorally. It is filed as functional, Urine. The settings on record: route oral.

Values joined by “and” are separate entries in the source; they are usually repeats but may differ in a detail not shown here. Identical values can stand only once. Active and inactive are the calls of the source. The rule behind the calls is not given here.

With `NS(=O)(=O)c1cc2c(cc1Cl)NCNS2(=O)=O` [HYDROCHLOROTHIAZIDE], the Activity is given as 1.8 m equiv kg-1 with Rattus norvegicus [1]; 3.9 m equiv kg-1 in the assay with Rattus norvegicus [2]; 3.1 m equiv kg-1 in the assay with Rattus norvegicus [3]; 2.3 m equiv kg-1 in the assay with Rattus norvegicus [8]; 5.1 m equiv kg-1 in the assay with Rattus norvegicus [10]; 1.9 m equiv kg-1 in the assay with Rattus norvegicus [11]. Further, the Ratio in [4] was 2.2; in assay [5], 1.7; in assay [6], 2. Besides, the Urinary output in the assay on Rattus norvegicus [7] came to 5.9 mL; with Rattus norvegicus [9], 4 mL; with Rattus norvegicus [12], 7.3 mL.

In the case of `NS(=O)(=O)c1cc(C(=O)N2CCN(CC(O)COc3cccc4c3CCC(=O)N4)CC2)ccc1Cl` (stereo not given), the Ki result in [13] was “Not Active”.

As for `NS(=O)(=O)c1cc(S(=O)(=O)N2CCN(CC(O)COc3cccc4c3SCC(=O)N4)CC2)ccc1Cl` (stereo not given), the Ki result in assay [13] was “Not Active”.

With `NS(=O)(=O)c1cc(S(=O)(=O)NCCNCC(O)COc2cccc3ccccc23)ccc1Cl` (stereo not given), the ED50 result in assay [14] and in assay [15] was “inactive” in each case.

Regarding `NS(=O)(=O)c1cc(C(=O)N2CCN(CC(O)COc3cccc4ccccc34)CC2)ccc1Cl` (stereo not given), the Ki result in assay [16] is “Not Active”.

Take `NS(=O)(=O)c1cc(NCCNCC(O)COc2cccc3ccccc23)ccc1Cl` (stereo not given): the Activity is listed as 1.6 m equiv kg-1 in the assay with Rattus norvegicus [1]; 3.1 m equiv kg-1 with Rattus norvegicus [2]; 2.8 m equiv kg-1 in the assay with Rattus norvegicus [3]; 2.6 m equiv kg-1 in the assay with Rattus norvegicus [8]; 3.2 m equiv kg-1 in the assay with Rattus norvegicus [10]; 2 m equiv kg-1 in the assay on Rattus norvegicus [11]. The values for the Ratio in assay [4], in assay [5] and in [6] were 1.2, 1.7 and 1.5, respectively. Moreover, the ED50 entry in assay [14] is “inactive”. For the same compound, the figures for the Urinary output with Rattus norvegicus [7], in the assay with Rattus norvegicus [9] and in the assay with Rattus norvegicus [12] were 3.2 mL, 2.4 mL and 3.5 mL, respectively.

In the case of `NS(=O)(=O)c1cc(S(=O)(=O)NCCNCC(O)COc2cccc3c2CCC(=O)N3)ccc1Cl` (stereo not given), the Activity in the assay on Rattus norvegicus [1] is on record as 0.9 m equiv kg-1; in the assay with Rattus norvegicus [2] it was 2.3 m equiv kg-1; in the assay with Rattus norvegicus [3] it was 1.8 m equiv kg-1; with Rattus norvegicus [8] it was 1.5 m equiv kg-1; in the assay on Rattus norvegicus [10], 3.4 m equiv kg-1; in the assay with Rattus norvegicus [11] it was 1.2 m equiv kg-1. Moreover, the figures for the Ratio in [4], in assay [5] and in [6] were 2.3, 2 and 1.9, respectively. Further, the Urinary output in the assay with Rattus norvegicus [7] (15 mg/kg) is 3.1 mL and 4.6 mL; in the assay on Rattus norvegicus [9] it was 2.2 mL.

Turning to `NS(=O)(=O)c1cc(C(=O)NCCNCC(O)COc2cccc3ccccc23)ccc1Cl` (stereo not given), the Activity with Rattus norvegicus [1] was 1.2 m equiv kg-1; with Rattus norvegicus [2], 3.1 m equiv kg-1; with Rattus norvegicus [3], 2.5 m equiv kg-1; in the assay on Rattus norvegicus [8] it was 1.4 m equiv kg-1; with Rattus norvegicus [10], 1.8 m equiv kg-1; with Rattus norvegicus [11], 1.7 m equiv kg-1. For the same compound, the Ratio in assay [4] was found to be 1.2; in assay [5], 2.1; in assay [6] it was 1.8. The figures for the Urinary output in the assay on Rattus norvegicus [7], with Rattus norvegicus [9] and in the assay with Rattus norvegicus [12] were 4.8 mL, 5.2 mL and 2.9 mL, respectively.

Consider `NS(=O)(=O)c1cc(NCCNCC(O)COc2cccc3c2SCC(=O)N3)ccc1Cl` (stereo not given), for which the Activity in the assay on Rattus norvegicus [1] turned out to be 1.1 m equiv kg-1; in the assay with Rattus norvegicus [2] it was 2.6 m equiv kg-1; with Rattus norvegicus [3] it was 2.1 m equiv kg-1; in the assay with Rattus norvegicus [8], 1.2 m equiv kg-1; in the assay with Rattus norvegicus [10], 2.2 m equiv kg-1; with Rattus norvegicus [11], 1.3 m equiv kg-1. In addition, the values for the Ratio in assay [4], in [5] and in assay [6] were 1.8, 1.9 and 2, respectively. Besides, the Urinary output in the assay on Rattus norvegicus [7] turned out to be 3.3 mL; in the assay on Rattus norvegicus [9], 2.6 mL; with Rattus norvegicus [12], 3.1 mL.

With `NS(=O)(=O)c1cc(C(=O)NCCNCC(O)COc2cccc3c2SCC(=O)N3)ccc1Cl` (stereo not given), the Activity amounted to 0.8 m equiv kg-1 in the assay with Rattus norvegicus [1]; 1.1 m equiv kg-1 in the assay on Rattus norvegicus [2]; 1.5 m equiv kg-1 with Rattus norvegicus [18]; 0.9 m equiv kg-1 in the assay on Rattus norvegicus [3]; 3.1 m equiv kg-1 in the assay on Rattus norvegicus [20]; 1.1 m equiv kg-1 in the assay on Rattus norvegicus [8]. Further, the Activity was found to be 1.7 m equiv kg-1 in the assay on Rattus norvegicus [10] and 0.9 m equiv kg-1 in the assay with Rattus norvegicus [11]. Also, the Urinary output in the assay on Rattus norvegicus [17] amounted to 4.3 mL; with Rattus norvegicus [9], 1.2 mL; in the assay with Rattus norvegicus [12] it was 2 mL; with Rattus norvegicus [21] it was 1.7 mL. For the same compound, the Ratio in assay [19] is 2.1; in assay [4], 1.5; in assay [5] it was 1.1; in [6] it was 1.2.

Turning to `NS(=O)(=O)c1cc(C(=O)NCCNCC(O)COc2cccc3c2CCC(=O)N3)ccc1Cl` (stereo not given), the Activity in the assay on Rattus norvegicus [1] is reported as 1.8 m equiv kg-1; with Rattus norvegicus [2], 2 m equiv kg-1; with Rattus norvegicus [3], 2.6 m equiv kg-1; with Rattus norvegicus [8], 1.8 m equiv kg-1; with Rattus norvegicus [10], 2.9 m equiv kg-1; in the assay with Rattus norvegicus [11], 1.5 m equiv kg-1. For the same compound, the Ratio amounted to 1.6 in [4], 1.4 in assay [5] and 1.3 in assay [6]. In addition, the Urinary output in the assay on Rattus norvegicus [7] was 2.6 mL; in the assay with Rattus norvegicus [9] it was 2.8 mL; with Rattus norvegicus [12] it was 3.3 mL.

Take `NS(=O)(=O)c1cc(C(=O)N2CCN(CC(O)COc3cccc4c3SCC(=O)N4)CC2)ccc1Cl` (stereo not given): the Ki result in assay [13] is “Not Active”.

On to `NS(=O)(=O)c1cc(S(=O)(=O)N2CCN(CC(O)COc3cccc4c3CCC(=O)N4)CC2)ccc1Cl` (stereo not given), for which the Ki result in assay [13] is given as “Not Active”.

On to `NS(=O)(=O)c1cc(S(=O)(=O)NCCNCC(O)COc2cccc3c2SCC(=O)N3)ccc1Cl` (stereo not given), for which the Activity in the assay on Rattus norvegicus [1] amounted to 1.3 m equiv kg-1; in the assay on Rattus norvegicus [2], 3 m equiv kg-1; with Rattus norvegicus [3] it was 3.2 m equiv kg-1; with Rattus norvegicus [8] it was 2.4 m equiv kg-1; with Rattus norvegicus [10], 4.5 m equiv kg-1; with Rattus norvegicus [11], 1.3 m equiv kg-1. Besides, the Ratio in [4] was found to be 1.9; in assay [5] it was 2.5; in assay [6] it was 2.3. Besides, the values for the Urinary output with Rattus norvegicus [7], in the assay with Rattus norvegicus [9] and in the assay with Rattus norvegicus [12] were 3.7 mL, 3.5 mL and 5.7 mL, respectively.

With `NS(=O)(=O)c1cc(N2CCN(CC(O)COc3cccc4ccccc34)CC2)ccc1Cl` (stereo not given), the Activity with Rattus norvegicus [1] is 1.3 m equiv kg-1; in the assay on Rattus norvegicus [2], 1.7 m equiv kg-1; with Rattus norvegicus [3], 2.4 m equiv kg-1; in the assay with Rattus norvegicus [8] it was 2 m equiv kg-1; with Rattus norvegicus [10], 3.2 m equiv kg-1; in the assay with Rattus norvegicus [11], 1.4 m equiv kg-1. Further, the Ratio in [4] is reported as 1.4; in [5], 1.8; in assay [6], 1.2. The Urinary output turned out to be 2.2 mL in the assay on Rattus norvegicus [7], 1.9 mL with Rattus norvegicus [9] and 2.9 mL in the assay on Rattus norvegicus [12].

`NS(=O)(=O)c1cc(S(=O)(=O)N2CCN(CC(O)COc3cccc4ccccc34)CC2)ccc1Cl` (stereo not given): the Ki entry in assay [13] is on record as “Not Active”.

With `NS(=O)(=O)c1cc(N2CCN(CC(O)COc3cccc4c3CCC(=O)N4)CC2)ccc1Cl` (stereo not given), in assay [13], the Ki entry is reported as “Not Active”.

For `NS(=O)(=O)c1cc(NCCNCC(O)COc2cccc3c2CCC(=O)N3)ccc1Cl` (stereo not given), the Ki entry in assay [13] was “Not Active”.

With `NS(=O)(=O)c1cc(N2CCN(CC(O)COc3cccc4c3SCC(=O)N4)CC2)ccc1Cl` (stereo not given), the Activity came out at 1.7 m equiv kg-1 in the assay on Rattus norvegicus [1]; 2.9 m equiv kg-1 in the assay with Rattus norvegicus [2]; 2.2 m equiv kg-1 in the assay on Rattus norvegicus [3]; 2 m equiv kg-1 in the assay on Rattus norvegicus [8]; 3 m equiv kg-1 with Rattus norvegicus [10]; 1.8 m equiv kg-1 in the assay on Rattus norvegicus [11]. Moreover, the Ratio in [4] was found to be 1.5; in assay [5], 1.3; in [6], 1.6. In addition, the ED50 entry in [14] was “inactive”. For the same compound, the Urinary output in the assay with Rattus norvegicus [7] was 3.1 mL; in the assay with Rattus norvegicus [9], 2.6 mL; in the assay on Rattus norvegicus [12], 3.5 mL.
